This note sets out measurements from patent publication US20250230193A1, “CYCLIC COMPOUND HAVING SELECTIVE KRAS INHIBITORY EFFECT ON HRAS AND NRAS” (CHUGAI SEIYAKU KABUSHIKI KAISHA, priority 2022, published 2025).

SMILES strings stand for the structures. Where a SMILES comes first, the peptide text is derived from it. Bridges are numbered along the chain shown (N, C = ends). [ ]: non-standard residue; d: D form. The star is where a group is joined. hPhe(3,5-F2-4-CF3) = N[C@@H](CCc1cc(F)c(C(F)(F)F)c(F)c1)C(=O)O; hPhe(3-Cl-4-CF3) = N[C@@H](CCc1ccc(C(F)(F)F)c(Cl)c1)C(=O)O; NPrPhe(4-CF3) = CCCN[C@@H](Cc1ccc(C(F)(F)F)cc1)C(=O)O; Pip(4,4-F2) = O=C(O)[C@@H]1CC(F)(F)CCN1; NMeGly(cPent) = CN[C@H](C(=O)O)C1CCCC1; NMeD = CN[C@@H](CC(=O)O)C(=O)O; NMeL = CN[C@@H](CC(C)C)C(=O)O; αMeL = CC(C)C[C@](C)(N)C(=O)O; Morpholide = C1CN(*)CCO1; Ac5c = NC1(C(=O)O)CCCC1; Aze = O=C(O)[C@@H]1CCN1; NEtG = CCNCC(=O)O; Sar = CNCC(=O)O

In test [1] the target is GDP-bound NRAS wild-type protein (Homo sapiens, UniProt P01111). The test can be described thus: Binding to NRAS by surface plasmon resonance (SPR), Single Cycle Kinetics. The following applies: SPR.
The target of test [2] is GDP-bound HRAS wild-type protein (Homo sapiens, UniProt P01112). Briefly: Binding to HRAS by surface plasmon resonance (SPR), Single Cycle Kinetics. The settings on record: SPR. Background: SPR reads the build-up and loss of mass on a sensor chip optically.
Where [3] appears, read: KD ratio, GDP-bound NRAS wild-type vs GDP-bound KRAS wild-type.
Where [4] appears, read: KD ratio, GDP-bound HRAS wild-type vs GDP-bound KRAS wild-type.
Where [5] appears, read: GDP-bound NRAS wild-type vs GDP-bound KRAS wild-type.
Setting [6] is: GDP-bound HRAS wild-type vs GDP-bound KRAS wild-type.

Sequence of GDP-bound HRAS wild-type protein (P01112 whole entry): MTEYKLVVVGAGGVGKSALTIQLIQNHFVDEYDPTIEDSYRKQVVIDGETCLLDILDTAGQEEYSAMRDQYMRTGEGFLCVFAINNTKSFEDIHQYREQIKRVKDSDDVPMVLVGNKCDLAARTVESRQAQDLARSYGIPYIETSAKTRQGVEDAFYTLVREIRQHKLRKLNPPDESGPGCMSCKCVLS
Sequence of GDP-bound NRAS wild-type protein (P01111 whole entry): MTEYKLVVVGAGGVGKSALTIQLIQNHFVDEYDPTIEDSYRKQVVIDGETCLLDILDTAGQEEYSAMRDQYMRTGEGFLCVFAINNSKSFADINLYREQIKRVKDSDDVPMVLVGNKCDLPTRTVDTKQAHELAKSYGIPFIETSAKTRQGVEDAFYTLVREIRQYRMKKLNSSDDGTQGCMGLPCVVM

`CCCN1C(=O)CN(C)C(=O)CN(CC)C(=O)[C@H]([C@@H](C)CC)NC(=O)[C@H](CC(C)C)N(C)C(=O)C[C@@H](C(=O)N2CCOCC2)N(C)C(=O)[C@H](C2CCCC2)N(C)C(=O)C2(CCCC2)NC(=O)[C@@H]2CC(F)(F)CCN2C(=O)[C@H](CCc2ccc(C(F)(F)F)c(Cl)c2)NC(=O)CN(C)C(=O)[C@@H]1Cc1ccc(C(F)(F)F)cc1` [PP0298] ([NMeL]I[NEtG][Sar][NPrPhe(4-CF3)][Sar][hPhe(3-Cl-4-CF3)][Pip(4,4-F2)][Ac5c][NMeGly(cPent)][NMeD]-Morpholide; lactam N-11): the “NRAS/KRAS (ratio of KD for GDP-bound NRAS wild-type to KD for KRAS)” value in test [1] (KD ratio NRAS/KRAS) was “B (a compound having 3 or more and less than 10 is denoted as B)”. Also, the “HRAS/KRAS (ratio of KD for GDP-bound HRAS wild-type to KD for KRAS)” value in test [2] (KD ratio HRAS/KRAS) is “C (A compound having a KD ratio of 0.1 or more and less than 3 is denoted as C)”.

On to `CC[C@H](C)[C@@H]1NC(=O)[C@H](CC)N(C)C(=O)C[C@@H](C(=O)N(C)C)N(C)C(=O)[C@H](C2CCCC2)N(C)C(=O)C2(CCC2)N(C)C(=O)[C@@H]2CCCN2C(=O)[C@H](CCc2cc(F)c(C(F)(F)F)c(F)c2)NC(=O)CN(C)C(=O)[C@H](Cc2ccc(C)cc2)N2CC/C=C\C[C@@H](C2=O)N(C)C(=O)CN(C)C1=O` [PP1782], for which, in test [1] (setting [3]), the “NRAS/KRAS (ratio of KD value for NRAS to KD value for KRAS)” value was “A (a compound having 10 or more and less than 20 is denoted as A)”. The “HRAS/KRAS (ratio of KD value for HRAS to KD value for KRAS)” value in test [2] (setting [4]) was “B (a compound having 3 or more and less than 10 is denoted as B)”.

`CCO[C@@H]1C[C@H]2C(=O)NC3(CC(C)(C)C3)C(=O)N(C)[C@@H](C(CC)CC)C(=O)N(C)[C@H](C(=O)N(C)C)CC(=O)N(C)[C@@H](CC)C(=O)N[C@@H]([C@@H](C)CC)C(=O)N(C)CC(=O)N(C)[C@H]3C/C=C\CCN(C3=O)[C@@H](Cc3ccc(C(F)(F)F)cc3)C(=O)N(C)CC(=O)N[C@@H](CCc3ccc(C(F)(F)F)c(OC)c3)C(=O)N2C1` [PP2066]: the “NRAS/KRAS (ratio of KD value with respect to NRAS to KD value with respect to KRAS)” value in test [1] (setting [5]) is “A (a compound having 10 or more and less than 20 is denoted as A)”. Moreover, the “HRAS/KRAS (ratio of KD value with respect to HRAS to KD value with respect to KRAS)” value in test [2] (setting [6]) was “B (a compound having 3 or more and less than 10 is denoted as B)”.

Take `CCO[C@@H]1C[C@H]2C(=O)NC3(CCC3)C(=O)N(C)[C@@H](C3CCCC3)C(=O)N(C)[C@H](C(=O)N(C)C)CC(=O)N(C)[C@@H](Cc3ccc(Cl)c(Cl)c3)C(=O)N[C@@H]([C@@H](C)CC)C(=O)N(C)CC(=O)N(C)[C@H]3CCCCCN(C3=O)[C@@H](Cc3ccc(F)cc3)C(=O)N(C)CC(=O)N[C@@H](CCc3cc(F)c(C(F)(F)F)c(F)c3)C(=O)N2C1` [PP1158]: the “NRAS/KRAS (ratio of KD value with respect to NRAS to KD value with respect to KRAS)” value in test [1] (setting [3]) is “B (a compound having 3 or more and less than 10 is denoted as B)”. Moreover, the “HRAS/KRAS (ratio of KD value with respect to HRAS to KD value with respect to KRAS)” value in test [2] (setting [4]) was “B (a compound having 3 or more and less than 10 is denoted as B)”.

In the case of `CCCN1C(=O)[C@@H]2CCN2C(=O)CN(C)C(=O)[C@H]([C@@H](C)CC)NC(=O)[C@H](CC(C)C)N(C)C(=O)C[C@@H](C(=O)N2CCOCC2)N(C)C(=O)[C@H](C2CCCC2)N(C)C(=O)[C@](C)(CC(C)C)NC(=O)[C@@H]2CCCN2C(=O)[C@H](CCc2cc(F)c(C(F)(F)F)c(F)c2)NC(=O)CN(C)C(=O)[C@@H]1Cc1ccc(C(F)(F)F)cc1` [PP0795] ([NMeL]I[Sar][Aze][NPrPhe(4-CF3)][Sar][hPhe(3,5-F2-4-CF3)]P[αMeL][NMeGly(cPent)][NMeD]-Morpholide; lactam N-11), the “NRAS/KRAS (ratio of KD value with respect to GDP-bound NRAS wild-type protein to KD value with respect to KRAS)” value in test [1] (KD ratio NRAS/KRAS) is “C (A compound having a KD ratio of 0.1 or more and less than 3 is denoted as C)”. For the same compound, in test [2] (KD ratio HRAS/KRAS), the “HRAS/KRAS (ratio of KD value with respect to GDP-bound HRAS wild-type protein to KD value with respect to KRAS)” value was “B (a compound having 3 or more and less than 10 is denoted as B)”.

With `CCCOC[C@H]1C(=O)N[C@@H]([C@@H](C)CC)C(=O)N(C)CC(=O)N(C)[C@H]2C/C=C\CCN(C2=O)[C@@H](Cc2ccc(C)cc2)C(=O)N(C)CC(=O)N[C@@H](CCc2ccc(C(F)(F)F)c(OC)c2)C(=O)N2C[C@H](OCC)C[C@H]2C(=O)N(C)C2(CCC2)C(=O)N(C)[C@@H](C(CC)CC)C(=O)N(C)[C@H](C(=O)N(C)C)CC(=O)N1C` [PP2323], in test [1] (setting [5]), the “NRAS/KRAS (ratio of KD value with respect to NRAS to KD value with respect to KRAS)” value is “A (a compound having 10 or more and less than 20 is denoted as A)”. For the same compound, in test [2] (setting [6]), the “HRAS/KRAS (ratio of KD value with respect to HRAS to KD value with respect to KRAS)” value was “A (a compound having 10 or more and less than 20 is denoted as A)”.

Consider `C=CCC[C@H]1C(=O)N[C@@H]([C@@H](C)CC)C(=O)N(C)CC(=O)N(C)[C@H]2CCCCCN(C2=O)[C@@H](Cc2ccc(C(F)(F)F)cc2)C(=O)N(C)CC(=O)N[C@@H](CCc2cc(F)c(C(F)(F)F)c(F)c2)C(=O)N2C[C@H](OCC)C[C@H]2C(=O)N[C@](C)(CC=C)C(=O)N(C)[C@@H](C2CCCC2)C(=O)N(C)[C@H](C(=O)N2CCOCC2)CC(=O)N1C` [PP0879], for which the “NRAS/KRAS (ratio of KD value with respect to NRAS to KD value with respect to KRAS)” value in test [1] (setting [3]) is “B (a compound having 3 or more and less than 10 is denoted as B)”. The “HRAS/KRAS (ratio of KD value with respect to HRAS to KD value with respect to KRAS)” value in test [2] (setting [4]) was “B (a compound having 3 or more and less than 10 is denoted as B)”.
